These results are taken from ChEMBL document CHEMBL4312004, “From bench to counter: Discovery and validation of a peony extract as tyrosinase inhibiting cosmeceutical” (Eur J Med Chem, 2019).

For data set [1], the system named is B16-F10. Briefly: Antimelanogenic activity against C57BL/6 mouse B16F10 cells incubated for 10 to 50 uM incubated for 24 hrs. The class given is functional.
Data set [2] relates to B16-F10. The data set can be described thus: Antimelanogenic activity against C57BL/6 mouse B16F10 cells at 10 uM incubated for 72 hrs relative to control. The class given is functional.
Data set [3] deals with B16-F10. Briefly: Cytotoxicity against C57BL/6 mouse B16F10 cells assessed as reduction in cell viability incubated for 72 hrs by SRB assay relative to control. The following applies: b16-f10, 72 h. In kind it is cell-based. (In general: The SRB assay estimates cell density from bound dye.)
Data set [4] is described as follows: Drug degradation in IMDM cell medium incubated for 24 hrs by HPLC analysis. The class given is physicochemical. The following applies: read-out: Drug degradation.
The target in data set [5] is T1, Tyrosinase (Agaricus bisporus) (UniProt O42713).
T1 sequence (whole entry): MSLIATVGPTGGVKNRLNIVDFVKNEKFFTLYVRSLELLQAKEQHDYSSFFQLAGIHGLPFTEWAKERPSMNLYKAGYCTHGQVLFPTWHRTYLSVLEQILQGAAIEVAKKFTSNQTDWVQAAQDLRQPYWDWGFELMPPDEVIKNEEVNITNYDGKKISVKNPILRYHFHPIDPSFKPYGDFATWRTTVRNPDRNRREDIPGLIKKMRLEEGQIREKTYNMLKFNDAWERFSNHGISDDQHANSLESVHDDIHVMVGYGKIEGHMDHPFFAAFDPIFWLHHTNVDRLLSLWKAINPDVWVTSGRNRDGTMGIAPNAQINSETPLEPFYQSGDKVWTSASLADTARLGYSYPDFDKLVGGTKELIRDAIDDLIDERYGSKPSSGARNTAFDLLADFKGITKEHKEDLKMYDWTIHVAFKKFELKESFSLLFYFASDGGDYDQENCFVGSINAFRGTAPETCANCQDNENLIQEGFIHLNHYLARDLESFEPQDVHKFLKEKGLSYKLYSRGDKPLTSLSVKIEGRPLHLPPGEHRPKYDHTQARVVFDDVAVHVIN
The data set can be described thus: Ratio of IC50 for arbutin to IC50 for test compound for inhibition of mushroom tyrosinase.

Data set [6] can be described thus: Stability of compound in DMSO at 10 mM incubated for 24 hrs by HPLC analysis. In kind it is physicochemical. The following applies: 10000 µM.
A short description of data set [7]: Stability of compound in IMDM cell medium incubated for 24 hrs by HPLC analysis. The class given is physicochemical.
The test system of data set [8] is B16-F10. The data set can be described thus: Antimelanogenic activity against C57BL/6 mouse B16F10 cells incubated for 72 hrs. The class given is functional, cell-based.
The target in the next data set is T2, Tyrosinase (Agaricus bisporus, UniProt O42713).
T2 sequence (O42713 whole entry): T1 sequence (whole entry)
The data set can be described thus: Inhibition of mushroom tyrosinase using L-dopa as substrate preincubated for 10 mins followed by substrate addition and measured for 5 mins by photometric analysis.

Data set [9] concerns B16-F10. The data set can be described thus: Antimelanogenic activity against C57BL/6 mouse B16F10 cells at 50 uM incubated for 72 hrs relative to control. The class given is functional.
Data set [10] relates to B16-F10. Briefly: Cytotoxicity against C57BL/6 mouse B16F10 cells assessed as increase in membrane blebbing at 50 uM incubated for 48 hrs by microscopic method. The class given is cell-based. The following applies: b16-f10, 48 h.
Data set [11] deals with B16-F10. Briefly: Cytotoxicity against C57BL/6 mouse B16F10 cells assessed as increase in cell shrinking at 50 uM incubated for 48 hrs by microscopic method. As to conditions: b16-f10, 48 h. In kind it is cell-based.

The source made the active and inactive calls. The calls are words filed in the database; no cut-off is given here.

For `OC[C@H]1O[C@@H](Oc2ccc(O)cc2)[C@H](O)[C@@H](O)[C@@H]1O`, in the data set on B16-F10 [1], the outcome was inactive.
For orientation: IC50 means the concentration needed to halve the response being measured. Lower therefore signals greater potency in that assay. Regarding `OC[C@H]1O[C@@H](Oc2ccc(/C=C/c3cc(O)cc(O)c3)cc2)[C@H](O)[C@@H](O)[C@@H]1O` [GOB C], the Activity is 50% with B16-F10 [2]; “Non-Toxic” with B16-F10 [3]; 25% in the data set with B16-F10 [1]; “Dose-dependent effect” in the data set with B16-F10 [8]; 65% with B16-F10 [9]. In addition, in data set [4], the degraded at 24 h worked out at 30%. Also, the Ratio IC50 in data set [5] turned out to be 73. Moreover, the Stability result was “Stable” in data set [6] and “Unstable” in [7]. For the same compound, the IC50 on Tyrosinase stood at 19 µM.
Consider `OC[C@H]1O[C@@H](Oc2cc(O)cc(/C=C/c3ccc(O)cc3)c2)[C@H](O)[C@@H](O)[C@@H]1O` [PICEID], for which the Stability entry in [6] and in data set [7] was “Stable” each time. The result with B16-F10 [1] was inactive.
For `Oc1ccc(/C=C/c2cc(O)cc(O)c2)cc1` [RESVERATROL], the Activity entry is “Toxic” with B16-F10 [10]; 50% in the data set with B16-F10 [2]; 70% in the data set with B16-F10 [3]; 25% with B16-F10 [1]; “Dose-dependent effect” with B16-F10 [8]; “Toxic” in the data set on B16-F10 [11]. Further, the Activity in the data set on B16-F10 [9] is given as 65%. For the same compound, the Stability result in [6] and in data set [7] was “Stable” each time.
